Data: paper PMC4197230, “Terpene synthases and their contribution to herbivore-induced volatile emission in western balsam poplar (Populus trichocarpa)” (BMC Plant Biology, 2014)
Values belong to the molecule of their own block, whether it stands above or below them.

What was measured:
Assay type in all cases: biochemical
PtTPS15 = biological target: T1, PtTPS15 (Populus trichocarpa, UniProt A0A076GBT1); assay: SPME GC-MS product analysis, bacterial extract; conditions: 10 mM MgCl2, pH 7.0, 30 C, desalted E. coli extract, empty-vector control
T1 construct: gene TPS15; full ORF in pASK-IBA7 (vector tag, if any, not described), E. coli TOP10, desalted bacterial extract
T1 sequence (A0A076GBT1 1-528): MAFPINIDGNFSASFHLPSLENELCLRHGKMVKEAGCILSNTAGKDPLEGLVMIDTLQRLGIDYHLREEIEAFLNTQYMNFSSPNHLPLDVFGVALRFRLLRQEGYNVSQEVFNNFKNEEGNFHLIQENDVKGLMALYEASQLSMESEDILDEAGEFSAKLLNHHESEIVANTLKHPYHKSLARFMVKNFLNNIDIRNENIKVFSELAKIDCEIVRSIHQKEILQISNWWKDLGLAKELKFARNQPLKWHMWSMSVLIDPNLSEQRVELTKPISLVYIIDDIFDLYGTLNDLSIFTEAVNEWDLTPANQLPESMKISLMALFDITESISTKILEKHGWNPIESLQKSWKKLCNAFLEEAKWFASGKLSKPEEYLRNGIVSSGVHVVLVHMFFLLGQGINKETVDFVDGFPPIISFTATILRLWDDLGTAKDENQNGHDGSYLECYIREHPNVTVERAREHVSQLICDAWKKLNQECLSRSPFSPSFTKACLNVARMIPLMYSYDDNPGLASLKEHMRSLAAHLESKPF

PtTPS12 = biological target: T2, PtTPS12 (Populus trichocarpa, UniProt A0A076GAU9); assay: SPME GC-MS product analysis, bacterial extract; conditions: 10 mM MgCl2, pH 7.0, 30 C, desalted E. coli extract, empty-vector control
T2 construct: gene TPS12; N-terminally truncated (first 126 nt deleted, predicted plastid transit peptide), pASK-IBA7, E. coli TOP10, desalted bacterial extract
T2 sequence (A0A076GAU9 entry or part of it): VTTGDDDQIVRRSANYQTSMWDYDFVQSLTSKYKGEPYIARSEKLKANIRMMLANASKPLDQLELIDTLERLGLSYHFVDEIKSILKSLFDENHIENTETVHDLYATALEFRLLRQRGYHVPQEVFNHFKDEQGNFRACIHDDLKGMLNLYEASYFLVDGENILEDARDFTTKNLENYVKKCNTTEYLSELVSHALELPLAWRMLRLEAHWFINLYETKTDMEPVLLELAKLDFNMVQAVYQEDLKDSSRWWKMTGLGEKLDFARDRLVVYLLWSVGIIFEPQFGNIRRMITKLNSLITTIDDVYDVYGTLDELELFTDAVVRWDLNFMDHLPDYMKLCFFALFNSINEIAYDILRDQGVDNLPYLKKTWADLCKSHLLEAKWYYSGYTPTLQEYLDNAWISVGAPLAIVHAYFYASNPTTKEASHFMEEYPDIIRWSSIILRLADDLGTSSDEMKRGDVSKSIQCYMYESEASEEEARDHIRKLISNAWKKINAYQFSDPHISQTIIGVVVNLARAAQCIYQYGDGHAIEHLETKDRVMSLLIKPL

PtTPS14 = biological target: T3, PtTPS14 (Populus trichocarpa, UniProt A0A076GBU1); assay: SPME GC-MS product analysis, bacterial extract; conditions: 10 uM FPP, 10 mM MgCl2, pH 7.0, 30 C; desalted E. coli extract, empty-vector control; marginal activity
T3 construct: gene TPS14; full ORF in pASK-IBA7 (vector tag, if any, not described), E. coli TOP10, desalted bacterial extract
T3 sequence (A0A076GBU1 1-560): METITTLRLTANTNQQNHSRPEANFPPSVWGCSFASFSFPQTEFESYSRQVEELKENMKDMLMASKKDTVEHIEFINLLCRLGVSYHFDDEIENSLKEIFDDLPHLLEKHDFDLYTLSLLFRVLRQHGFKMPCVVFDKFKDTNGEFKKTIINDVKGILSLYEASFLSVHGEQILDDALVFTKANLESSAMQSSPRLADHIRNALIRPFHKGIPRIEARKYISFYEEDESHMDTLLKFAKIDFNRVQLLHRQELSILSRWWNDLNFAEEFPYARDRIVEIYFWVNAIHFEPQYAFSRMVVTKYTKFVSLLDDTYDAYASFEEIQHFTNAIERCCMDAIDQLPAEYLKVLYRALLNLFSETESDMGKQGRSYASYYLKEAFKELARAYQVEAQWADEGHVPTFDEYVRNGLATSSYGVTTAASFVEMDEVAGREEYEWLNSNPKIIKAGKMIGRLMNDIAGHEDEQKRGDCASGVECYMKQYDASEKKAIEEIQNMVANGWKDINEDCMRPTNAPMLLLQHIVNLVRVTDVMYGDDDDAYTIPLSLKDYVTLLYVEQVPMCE

PtTPS9 = biological target: T4, PtTPS9 (Populus trichocarpa, UniProt A0A076GBT5); assay: SPME GC-MS product analysis, bacterial extract; conditions: 10 uM FPP, 10 mM MgCl2, pH 7.0, 30 C; desalted E. coli extract, empty-vector control
T4 construct: gene TPS9; full ORF in pASK-IBA7 (vector tag, if any, not described), E. coli TOP10, desalted bacterial extract
T4 sequence (A0A076GBT5 1-569): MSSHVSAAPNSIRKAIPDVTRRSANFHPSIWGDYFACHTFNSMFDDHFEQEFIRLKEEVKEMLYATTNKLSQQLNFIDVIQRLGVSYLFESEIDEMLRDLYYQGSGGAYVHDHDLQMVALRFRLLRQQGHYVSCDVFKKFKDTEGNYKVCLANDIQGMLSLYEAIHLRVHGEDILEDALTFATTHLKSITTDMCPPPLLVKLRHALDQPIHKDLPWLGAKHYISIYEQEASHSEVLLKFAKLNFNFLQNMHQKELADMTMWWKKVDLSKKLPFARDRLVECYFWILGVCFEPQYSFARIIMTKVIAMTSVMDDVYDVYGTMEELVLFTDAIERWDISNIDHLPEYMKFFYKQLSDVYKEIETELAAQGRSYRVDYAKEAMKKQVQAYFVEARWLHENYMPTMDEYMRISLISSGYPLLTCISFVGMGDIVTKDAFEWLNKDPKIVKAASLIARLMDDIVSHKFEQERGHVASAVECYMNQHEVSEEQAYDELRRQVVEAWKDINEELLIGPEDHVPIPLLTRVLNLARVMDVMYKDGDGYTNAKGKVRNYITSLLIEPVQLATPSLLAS

PtTPS10 = biological target: T5, PtTPS10 (Populus trichocarpa, UniProt A0A076GH23); assay: hexane overlay GC-MS product analysis, bacterial extract; conditions: 50 uM GGPP, 10 mM MgCl2, pH 7.0, 30 C, 60 min; desalted E. coli extract, empty-vector control
T5 construct: gene TPS10; full ORF in pASK-IBA7 (vector tag, if any, not described), E. coli TOP10, desalted bacterial extract
T5 sequence (A0A076GH23 1-836): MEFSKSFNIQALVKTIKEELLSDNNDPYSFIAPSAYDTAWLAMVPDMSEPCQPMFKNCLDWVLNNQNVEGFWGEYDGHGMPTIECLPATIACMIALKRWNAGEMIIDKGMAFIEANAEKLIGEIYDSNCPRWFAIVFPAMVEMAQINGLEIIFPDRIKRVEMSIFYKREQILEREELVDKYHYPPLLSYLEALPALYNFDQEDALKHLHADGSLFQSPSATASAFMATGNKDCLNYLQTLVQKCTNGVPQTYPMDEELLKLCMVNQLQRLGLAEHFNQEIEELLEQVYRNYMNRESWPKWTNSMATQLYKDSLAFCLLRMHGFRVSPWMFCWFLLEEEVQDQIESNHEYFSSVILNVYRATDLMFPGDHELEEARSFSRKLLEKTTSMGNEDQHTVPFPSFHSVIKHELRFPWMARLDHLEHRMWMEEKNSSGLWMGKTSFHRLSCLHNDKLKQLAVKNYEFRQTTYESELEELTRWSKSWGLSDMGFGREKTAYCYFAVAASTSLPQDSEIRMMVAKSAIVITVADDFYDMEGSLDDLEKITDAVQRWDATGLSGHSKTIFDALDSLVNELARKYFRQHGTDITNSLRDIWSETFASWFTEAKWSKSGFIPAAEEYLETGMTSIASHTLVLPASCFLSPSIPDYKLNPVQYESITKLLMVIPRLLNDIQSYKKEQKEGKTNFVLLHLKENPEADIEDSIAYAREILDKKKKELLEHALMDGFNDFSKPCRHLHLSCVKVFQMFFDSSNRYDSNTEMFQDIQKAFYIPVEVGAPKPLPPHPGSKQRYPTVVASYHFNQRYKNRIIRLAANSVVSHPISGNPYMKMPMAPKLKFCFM

PtTPS6 = biological target: T6, PtTPS6 (Populus trichocarpa, UniProt A0A076GAR5); assay: SPME GC-MS product analysis, bacterial extract; conditions: 10 uM GPP, 10 mM MgCl2, pH 7.0, 30 C; desalted E. coli extract, empty-vector control
T6 construct: gene TPS6; N-terminally truncated (first 57 nt deleted, predicted plastid transit peptide), pASK-IBA7, E. coli TOP10, desalted bacterial extract
T6 sequence (A0A076GAR5 entry or part of it): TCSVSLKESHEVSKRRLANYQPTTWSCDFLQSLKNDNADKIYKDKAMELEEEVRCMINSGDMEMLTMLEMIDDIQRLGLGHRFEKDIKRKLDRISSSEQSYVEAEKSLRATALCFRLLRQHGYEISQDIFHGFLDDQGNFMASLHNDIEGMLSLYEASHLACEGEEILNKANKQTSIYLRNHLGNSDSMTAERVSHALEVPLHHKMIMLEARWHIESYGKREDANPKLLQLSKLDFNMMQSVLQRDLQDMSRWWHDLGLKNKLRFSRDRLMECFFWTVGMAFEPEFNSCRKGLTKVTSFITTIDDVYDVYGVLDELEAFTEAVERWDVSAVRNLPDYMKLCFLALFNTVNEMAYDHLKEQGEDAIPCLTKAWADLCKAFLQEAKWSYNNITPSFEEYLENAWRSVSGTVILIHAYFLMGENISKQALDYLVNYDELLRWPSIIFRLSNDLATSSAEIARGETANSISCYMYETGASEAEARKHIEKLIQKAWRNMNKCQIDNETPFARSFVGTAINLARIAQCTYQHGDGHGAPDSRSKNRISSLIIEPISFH

PtTPS11 = biological target: T7, PtTPS11 (Populus trichocarpa, UniProt A0A076GAR6); assay: SPME GC-MS product analysis, bacterial extract; conditions: 10 uM GPP, 10 mM MgCl2, pH 7.0, 30 C; desalted E. coli extract, empty-vector control
T7 construct: gene TPS11; full ORF in pASK-IBA7 (vector tag, if any, not described), E. coli TOP10, desalted bacterial extract
T7 sequence (A0A076GAR6 1-551): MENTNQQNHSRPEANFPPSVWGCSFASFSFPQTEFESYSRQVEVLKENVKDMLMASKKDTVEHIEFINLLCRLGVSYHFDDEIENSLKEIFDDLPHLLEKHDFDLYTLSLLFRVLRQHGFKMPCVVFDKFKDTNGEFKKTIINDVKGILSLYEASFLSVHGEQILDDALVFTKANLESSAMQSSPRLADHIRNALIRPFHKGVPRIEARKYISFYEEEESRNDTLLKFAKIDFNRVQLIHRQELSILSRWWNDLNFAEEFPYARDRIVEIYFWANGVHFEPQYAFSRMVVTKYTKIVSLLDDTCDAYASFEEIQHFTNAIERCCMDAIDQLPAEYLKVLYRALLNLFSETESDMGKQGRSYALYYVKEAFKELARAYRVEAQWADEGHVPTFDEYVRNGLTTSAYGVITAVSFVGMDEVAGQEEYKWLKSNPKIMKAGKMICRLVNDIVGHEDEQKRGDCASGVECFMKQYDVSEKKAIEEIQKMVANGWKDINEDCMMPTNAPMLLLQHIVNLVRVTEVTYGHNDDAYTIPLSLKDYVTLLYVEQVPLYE

SMILES: CC(C)=CCC/C(C)=C/CC/C(C)=C/COP(=O)(O)OP(=O)(O)O [FPP]
- SPME GC-MS product analysis, bacterial extract (PtTPS15; 10 uM FPP): PtTPS15 was able to convert FPP to nerolidol
- SPME GC-MS product analysis, bacterial extract (PtTPS12; 10 uM FPP): PtTPS12 showed a broad sesquiterpene product spectrum
- SPME GC-MS product analysis, bacterial extract (PtTPS14): PtTPS14 showed only marginal activity with FPP and produced trace amounts of germacrene D
- SPME GC-MS product analysis, bacterial extract (PtTPS9): PtTPS9 produced (E)-β-caryophyllene and smaller amounts of α-humulene

SMILES: CC(C)=CCC/C(C)=C/CC/C(C)=C/CC/C(C)=C/COP(=O)(O)OP(=O)(O)O [GGPP]
- hexane overlay GC-MS product analysis, bacterial extract (PtTPS10): PtTPS10 represented a DTS and was able to convert GGPP into geranyllinalool

- SPME GC-MS product analysis, bacterial extract (PtTPS15; 10 uM GPP): PtTPS15, which produced only linalool
SMILES: CC(C)=CCC/C(C)=C/COP(=O)(O)OP(=O)(O)O [GPP]
- SPME GC-MS product analysis, bacterial extract (PtTPS12; 10 uM GPP): PtTPS12 which formed linalool and trace amounts of β-phellandrene
- SPME GC-MS product analysis, bacterial extract (PtTPS6): (PtTPS6, PtTPS12, PtTPS13 and PtTPS15) accepted GPP as substrate and produced monoterpenes
- SPME GC-MS product analysis, bacterial extract (PtTPS11): When offered GPP as a substrate, PtTPS11 formed several monoterpenes
